Values joined by “and” are separate entries in the source; they are usually repeats but may differ in a detail not shown here. Identical values can stand only once. Inconclusive results and toxic doses are left out. Rule as the data show it: active = T/C of 150% or more; inactive = T/C below 125%.
System: L1210 leukemia ip in BDF1 mice, survival T/C
Assay: NCI In Vivo Anticancer Drug Screen. Data for tumor model L1210 Leukemia (intraperitoneal) in B6D2F1 (BDF1) mice
Conditions: endpoint: mean survival time, higher = longer survival
In short: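 Survival endpoint. Drug-treated group vs vehicle group, expressed as T divided by C. Tumor passaged by transplantation.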

[1] = dose: 100.0 mg/kg/injection, schedule: Q01DX001 (ip), vehicle: saline
[2] = dose: 200.0 mg/kg/injection, schedule: Q01DX001 (ip), vehicle: saline
[3] = dose: 400.0 mg/kg/injection, schedule: Q01DX001 (ip), vehicle: saline
[4] = dose: 100.0 mg/kg/injection, schedule: Q04DX003 (ip), vehicle: Klucel (hydroxypropylcellulose) (HPC)
[5] = dose: 200.0 mg/kg/injection, schedule: Q04DX003 (ip), vehicle: Klucel (hydroxypropylcellulose) (HPC)
[6] = dose: 400.0 mg/kg/injection, schedule: Q04DX003 (ip), vehicle: Klucel (hydroxypropylcellulose) (HPC)
[7] = dose: 100.0 mg/kg/injection, schedule: Q04DX003 (ip), vehicle: saline
[8] = dose: 200.0 mg/kg/injection, schedule: Q04DX003 (ip), vehicle: saline
[9] = dose: 400.0 mg/kg/injection, schedule: Q04DX003 (ip), vehicle: saline
[10] = dose: 100.0 mg/kg/injection, schedule: Q01DX009 (ip), vehicle: Klucel (hydroxypropylcellulose) (HPC)
[11] = dose: 200.0 mg/kg/injection, schedule: Q01DX009 (ip), vehicle: Klucel (hydroxypropylcellulose) (HPC)
[12] = dose: 400.0 mg/kg/injection, schedule: Q01DX009 (ip), vehicle: Klucel (hydroxypropylcellulose) (HPC)
[13] = dose: 100.0 mg/kg/injection, schedule: Q01DX001 (ip), vehicle: carboxymethylcellulose (CMC)
[14] = dose: 200.0 mg/kg/injection, schedule: Q01DX001 (ip), vehicle: carboxymethylcellulose (CMC)

Measured: T/C

COC(=O)CCCN1CC2C=C(C#N)C1C(C(=O)OC)C2 (stereo unspecified)
inactive: dose: 150.0 mg/kg/injection, schedule: Q01DX001 (ip), vehicle: saline 93 % of control | dose: 300.0 mg/kg/injection, schedule: Q01DX001 (ip), vehicle: saline 93 % of control

Cc1nc(N)[nH]c(=O)c1CCCNS(=O)(=O)c1ccc(CN)cc1
inactive: [1] 115 % of control | [2] 98 % of control | [3] 101 % of control

CC(=O)C12OC(C)(C)OC1CC1C3CCC4=CC(=O)CCC4(C)C3CCC12C (stereo unspecified)
inactive: dose: 12.5 mg/kg/injection, schedule: Q04DX002 (ip), vehicle: Klucel (hydroxypropylcellulose) (HPC) 108 % of control | dose: 25.0 mg/kg/injection, schedule: Q04DX002 (ip), vehicle: Klucel (hydroxypropylcellulose) (HPC) 108 % of control | dose: 50.0 mg/kg/injection, schedule: Q04DX002 (ip), vehicle: Klucel (hydroxypropylcellulose) (HPC) 94 % of control

CCCCOC(=O)c1ccc(OCCOc2ccc(C(C)(C)CC(C)(C)C)cc2)c(NC(=O)CC(=O)c2cccc(N)c2)c1
inactive: dose: 100.0 mg/kg/injection, schedule: Q01DX009 (ip), vehicle: saline sonified 97 % of control | [4] 96 % of control | dose: 200.0 mg/kg/injection, schedule: Q01DX009 (ip), vehicle: saline sonified 91 % of control | [5] 93 % of control | dose: 400.0 mg/kg/injection, schedule: Q01DX009 (ip), vehicle: saline sonified 103 % of control | [6] 88 % of control

CC(C)n1ncc2c(N)ncnc21
inactive: dose: 7.5 mg/kg/injection, schedule: Q01DX001 (ip), vehicle: saline 107 % of control | dose: 7.5 mg/kg/injection, schedule: Q04DX003 (ip), vehicle: saline 100 % of control | dose: 15.0 mg/kg/injection, schedule: Q01DX001 (ip), vehicle: saline 100 % of control | dose: 15.0 mg/kg/injection, schedule: Q04DX003 (ip), vehicle: saline 97 % of control | dose: 30.0 mg/kg/injection, schedule: Q01DX001 (ip), vehicle: saline 100 % of control | dose: 30.0 mg/kg/injection, schedule: Q04DX003 (ip), vehicle: saline 98 % of control

CNc1ccc(C(=O)NC(CCC(=O)O)C(=O)O)cc1[N+](=O)[O-] (stereo unspecified)
inactive: [7] 105 % of control | [8] 94 % of control | [9] 103 % of control

c1ccc([S][Pb]([c]2ccccc2)([c]2ccccc2)[c]2ccccc2)cc1
inactive: dose: 8.0 mg/kg/injection, schedule: Q04DX003 (ip), vehicle: saline 111 % of control | dose: 16.0 mg/kg/injection, schedule: Q04DX003 (ip), vehicle: saline 103 % of control | dose: 32.0 mg/kg/injection, schedule: Q04DX003 (ip), vehicle: saline 122 % of control

Cc1ccc[n+](CC(=O)CCc2ccc(C(=O)C[n+]3cccc(C)c3)cc2)c1
inactive: dose: 0.07 mg/kg/injection, schedule: Q04DX003 (ip), vehicle: saline 94 % of control | dose: 0.14 mg/kg/injection, schedule: Q04DX003 (ip), vehicle: saline 101 % of control

CC(=O)c1ccc2c(c1)N(CCCN1CCN(CCO)CC1)c1ccccc1S2
inactive: dose: 0.78 mg/kg/injection, schedule: Q01DX009 (ip), vehicle: saline 93 % of control and 120 % of control | dose: 1.5 mg/kg/injection, schedule: Q01DX009 (ip), vehicle: saline 106 % of control | dose: 1.56 mg/kg/injection, schedule: Q01DX009 (ip), vehicle: saline 105 % of control and 113 % of control | dose: 3.12 mg/kg/injection, schedule: Q01DX009 (ip), vehicle: Klucel (hydroxypropylcellulose) (HPC) 113 % of control | dose: 3.12 mg/kg/injection, schedule: Q01DX009 (ip), vehicle: saline 102 % of control and 104 % of control and 116 % of control | dose: 6.25 mg/kg/injection, schedule: Q01DX009 (ip), vehicle: saline 103 % of control and 104 % of control | dose: 6.25 mg/kg/injection, schedule: Q04DX003 (ip), vehicle: saline 98 % of control | dose: 12.5 mg/kg/injection, schedule: Q01DX009 (ip), vehicle: Klucel (hydroxypropylcellulose) (HPC) 96 % of control | dose: 12.5 mg/kg/injection, schedule: Q04DX003 (ip), vehicle: saline 115 % of control | dose: 25.0 mg/kg/injection, schedule: Q01DX009 (ip), vehicle: saline 98 % of control

II
inactive: dose: 12.0 mg/kg/injection, schedule: Q01DX009 (ip), vehicle: acetone 96 % of control | dose: 25.0 mg/kg/injection, schedule: Q01DX009 (ip), vehicle: acetone 93 % of control | dose: 50.0 mg/kg/injection, schedule: Q01DX009 (ip), vehicle: acetone 106 % of control

CNc1ccccc1C#N
inactive: [10] 102 % of control | [4] 93 % of control | [11] 98 % of control | [5] 95 % of control | [12] 109 % of control | [6] 97 % of control

CC(C)OC(=O)C1OC1c1ccccc1 (stereo unspecified)
inactive: dose: 100.0 mg/kg/injection, schedule: Q04DX002 (ip), vehicle: saline with Tween-80 109 % of control | dose: 200.0 mg/kg/injection, schedule: Q04DX002 (ip), vehicle: saline with Tween-80 102 % of control | dose: 400.0 mg/kg/injection, schedule: Q04DX002 (ip), vehicle: saline with Tween-80 109 % of control

Oc1cc[c]([Hg][Cl])cc1
inactive: dose: 12.5 mg/kg/injection, schedule: Q04DX003 (ip), vehicle: Klucel (hydroxypropylcellulose) (HPC) 105 % of control | dose: 25.0 mg/kg/injection, schedule: Q04DX003 (ip), vehicle: Klucel (hydroxypropylcellulose) (HPC) 111 % of control | dose: 50.0 mg/kg/injection, schedule: Q04DX003 (ip), vehicle: Klucel (hydroxypropylcellulose) (HPC) 99 % of control

N#CCC(N)=C(C#N)C#N
inactive: [13] 94 % of control | dose: 100.0 mg/kg/injection, schedule: Q01DX Z (ip), vehicle: carboxymethylcellulose (CMC) 94 % of control | [14] 103 % of control

COc1cc(C(N)=O)cc(OC)c1OC
inactive: dose: 100.0 mg/kg/injection, schedule: Q01DX001 (ip), vehicle: saline with Tween-80 96 % of control | dose: 200.0 mg/kg/injection, schedule: Q01DX001 (ip), vehicle: saline with Tween-80 98 % of control | dose: 400.0 mg/kg/injection, schedule: Q01DX001 (ip), vehicle: saline with Tween-80 98 % of control

COc1cc(-c2[o+]c3cc(O)cc(O)c3cc2OC2OC(CO)C(O)C(O)C2O)cc(OC)c1O (stereo unspecified)
inactive: [13] 92 % of control | dose: 100.0 mg/kg/injection, schedule: Q04DX003 (ip), vehicle: saline sonified 98 % of control | [14] 101 % of control | dose: 400.0 mg/kg/injection, schedule: Q01DX001 (ip), vehicle: carboxymethylcellulose (CMC) 100 % of control

COc1cccc(-c2ccc(N=N/C(=N/Nc3ccccc3)c3ccccc3)c(OC)c2)c1
inactive: dose: 50.0 mg/kg/injection, schedule: Q01DX001 (ip), vehicle: saline 101 % of control | [1] 95 % of control | [2] 97 % of control | [3] 89 % of control

O=[N+]([O-])c1cc(Br)ccc1N1CCCC1
inactive: [7] 88 % of control | [8] 101 % of control | [9] 93 % of control

CC(C)C1CCC(C)C(NC(N)=O)C1 (stereo unspecified)
inactive: [1] 95 % of control | [2] 97 % of control | [3] 106 % of control

BrC1C2CCC(CC2)C1Br (stereo unspecified)
inactive: [10] 92 % of control | [4] 100 % of control | [11] 92 % of control | [5] 100 % of control | [12] 94 % of control | [6] 96 % of control

CC[N+]1(CC)CCOC(=O)C1
inactive: dose: 100.0 mg/kg/injection, schedule: Q01DX009 (ip), vehicle: saline 95 % of control | [7] 109 % of control | dose: 200.0 mg/kg/injection, schedule: Q01DX009 (ip), vehicle: saline 93 % of control | [8] 101 % of control | dose: 400.0 mg/kg/injection, schedule: Q01DX009 (ip), vehicle: saline 94 % of control | [9] 101 % of control

NNc1ccc(-c2ccccc2)cc1
inactive: dose: 75.0 mg/kg/injection, schedule: Q01DX001 (ip), vehicle: carboxymethylcellulose (CMC) 95 % of control | dose: 150.0 mg/kg/injection, schedule: Q01DX001 (ip), vehicle: carboxymethylcellulose (CMC) 92 % of control | dose: 300.0 mg/kg/injection, schedule: Q01DX001 (ip), vehicle: carboxymethylcellulose (CMC) 97 % of control

CCOC(=O)C(=CNc1ccccc1)C(=O)OCC
inactive: [10] 97 % of control | [11] 90 % of control | [12] 97 % of control

Reference: PubChem BioAssay AID248 (DTP/NCI, 2004)
